From patent US20110263569A1, “RYANODINE CHANNEL BINDERS AND USES THEREOF” (President and Fellows of Harvard College, priority 2007, published 2011)

Molecular target: T1, calstabin2 (FKBP12.6) binding to PKA-phosphorylated cardiac sarcoplasmic reticulum (CSR) (Homo sapiens, UniProt Q92736)
T1 construct: from tissue
Test: Calstabin 2 (FKBP12.6) Assay
Details: 250 nM calstabin2, approximately 20 μg PKA-phosphorylated CSR, room temperature 30 minutes, immunoblot detection of calstabin2 binding
Experimental: PKA-phosphorylated cardiac sarcoplasmic reticulum (CSR) (approximately 20 μg) is incubated with 250 nM calstabin2 (FKBP12.6) in 100 μl binding buffer (10 mM imidazole, 300 mM sucrose, pH 7.4) with a known concentration of the test compound. Calstabin2 is added as the last reagent in the reaction mixture. The binding is performed at room temperature for 30 minutes. After the binding reaction, the mixture is centrifuged for 10 minutes at 100,000 xg. The resulting pellet is washed 4 times in binding buffer. After each wash, the tubes are centrifuged at 100,000 xg for 10 minutes. After the final wash, the supernatant is aspirated off 20 μl of 2×SDS-PAGE loading buffer is added to each pellet, and the pellet is resuspended. The mixture is heated to 90° C. for 4 minutes, and the proteins are analysed by 15% SDS-PAGE. Calstabin2 binding was detected with an αFKBP (1:2000) primary antibody and an IR-labeled anti-rabbit IgG from LiCor Biosciences as the secondary antibody. The blot was developed with a LiCor Odyssey system.

T1 sequence (Q92736 whole entry): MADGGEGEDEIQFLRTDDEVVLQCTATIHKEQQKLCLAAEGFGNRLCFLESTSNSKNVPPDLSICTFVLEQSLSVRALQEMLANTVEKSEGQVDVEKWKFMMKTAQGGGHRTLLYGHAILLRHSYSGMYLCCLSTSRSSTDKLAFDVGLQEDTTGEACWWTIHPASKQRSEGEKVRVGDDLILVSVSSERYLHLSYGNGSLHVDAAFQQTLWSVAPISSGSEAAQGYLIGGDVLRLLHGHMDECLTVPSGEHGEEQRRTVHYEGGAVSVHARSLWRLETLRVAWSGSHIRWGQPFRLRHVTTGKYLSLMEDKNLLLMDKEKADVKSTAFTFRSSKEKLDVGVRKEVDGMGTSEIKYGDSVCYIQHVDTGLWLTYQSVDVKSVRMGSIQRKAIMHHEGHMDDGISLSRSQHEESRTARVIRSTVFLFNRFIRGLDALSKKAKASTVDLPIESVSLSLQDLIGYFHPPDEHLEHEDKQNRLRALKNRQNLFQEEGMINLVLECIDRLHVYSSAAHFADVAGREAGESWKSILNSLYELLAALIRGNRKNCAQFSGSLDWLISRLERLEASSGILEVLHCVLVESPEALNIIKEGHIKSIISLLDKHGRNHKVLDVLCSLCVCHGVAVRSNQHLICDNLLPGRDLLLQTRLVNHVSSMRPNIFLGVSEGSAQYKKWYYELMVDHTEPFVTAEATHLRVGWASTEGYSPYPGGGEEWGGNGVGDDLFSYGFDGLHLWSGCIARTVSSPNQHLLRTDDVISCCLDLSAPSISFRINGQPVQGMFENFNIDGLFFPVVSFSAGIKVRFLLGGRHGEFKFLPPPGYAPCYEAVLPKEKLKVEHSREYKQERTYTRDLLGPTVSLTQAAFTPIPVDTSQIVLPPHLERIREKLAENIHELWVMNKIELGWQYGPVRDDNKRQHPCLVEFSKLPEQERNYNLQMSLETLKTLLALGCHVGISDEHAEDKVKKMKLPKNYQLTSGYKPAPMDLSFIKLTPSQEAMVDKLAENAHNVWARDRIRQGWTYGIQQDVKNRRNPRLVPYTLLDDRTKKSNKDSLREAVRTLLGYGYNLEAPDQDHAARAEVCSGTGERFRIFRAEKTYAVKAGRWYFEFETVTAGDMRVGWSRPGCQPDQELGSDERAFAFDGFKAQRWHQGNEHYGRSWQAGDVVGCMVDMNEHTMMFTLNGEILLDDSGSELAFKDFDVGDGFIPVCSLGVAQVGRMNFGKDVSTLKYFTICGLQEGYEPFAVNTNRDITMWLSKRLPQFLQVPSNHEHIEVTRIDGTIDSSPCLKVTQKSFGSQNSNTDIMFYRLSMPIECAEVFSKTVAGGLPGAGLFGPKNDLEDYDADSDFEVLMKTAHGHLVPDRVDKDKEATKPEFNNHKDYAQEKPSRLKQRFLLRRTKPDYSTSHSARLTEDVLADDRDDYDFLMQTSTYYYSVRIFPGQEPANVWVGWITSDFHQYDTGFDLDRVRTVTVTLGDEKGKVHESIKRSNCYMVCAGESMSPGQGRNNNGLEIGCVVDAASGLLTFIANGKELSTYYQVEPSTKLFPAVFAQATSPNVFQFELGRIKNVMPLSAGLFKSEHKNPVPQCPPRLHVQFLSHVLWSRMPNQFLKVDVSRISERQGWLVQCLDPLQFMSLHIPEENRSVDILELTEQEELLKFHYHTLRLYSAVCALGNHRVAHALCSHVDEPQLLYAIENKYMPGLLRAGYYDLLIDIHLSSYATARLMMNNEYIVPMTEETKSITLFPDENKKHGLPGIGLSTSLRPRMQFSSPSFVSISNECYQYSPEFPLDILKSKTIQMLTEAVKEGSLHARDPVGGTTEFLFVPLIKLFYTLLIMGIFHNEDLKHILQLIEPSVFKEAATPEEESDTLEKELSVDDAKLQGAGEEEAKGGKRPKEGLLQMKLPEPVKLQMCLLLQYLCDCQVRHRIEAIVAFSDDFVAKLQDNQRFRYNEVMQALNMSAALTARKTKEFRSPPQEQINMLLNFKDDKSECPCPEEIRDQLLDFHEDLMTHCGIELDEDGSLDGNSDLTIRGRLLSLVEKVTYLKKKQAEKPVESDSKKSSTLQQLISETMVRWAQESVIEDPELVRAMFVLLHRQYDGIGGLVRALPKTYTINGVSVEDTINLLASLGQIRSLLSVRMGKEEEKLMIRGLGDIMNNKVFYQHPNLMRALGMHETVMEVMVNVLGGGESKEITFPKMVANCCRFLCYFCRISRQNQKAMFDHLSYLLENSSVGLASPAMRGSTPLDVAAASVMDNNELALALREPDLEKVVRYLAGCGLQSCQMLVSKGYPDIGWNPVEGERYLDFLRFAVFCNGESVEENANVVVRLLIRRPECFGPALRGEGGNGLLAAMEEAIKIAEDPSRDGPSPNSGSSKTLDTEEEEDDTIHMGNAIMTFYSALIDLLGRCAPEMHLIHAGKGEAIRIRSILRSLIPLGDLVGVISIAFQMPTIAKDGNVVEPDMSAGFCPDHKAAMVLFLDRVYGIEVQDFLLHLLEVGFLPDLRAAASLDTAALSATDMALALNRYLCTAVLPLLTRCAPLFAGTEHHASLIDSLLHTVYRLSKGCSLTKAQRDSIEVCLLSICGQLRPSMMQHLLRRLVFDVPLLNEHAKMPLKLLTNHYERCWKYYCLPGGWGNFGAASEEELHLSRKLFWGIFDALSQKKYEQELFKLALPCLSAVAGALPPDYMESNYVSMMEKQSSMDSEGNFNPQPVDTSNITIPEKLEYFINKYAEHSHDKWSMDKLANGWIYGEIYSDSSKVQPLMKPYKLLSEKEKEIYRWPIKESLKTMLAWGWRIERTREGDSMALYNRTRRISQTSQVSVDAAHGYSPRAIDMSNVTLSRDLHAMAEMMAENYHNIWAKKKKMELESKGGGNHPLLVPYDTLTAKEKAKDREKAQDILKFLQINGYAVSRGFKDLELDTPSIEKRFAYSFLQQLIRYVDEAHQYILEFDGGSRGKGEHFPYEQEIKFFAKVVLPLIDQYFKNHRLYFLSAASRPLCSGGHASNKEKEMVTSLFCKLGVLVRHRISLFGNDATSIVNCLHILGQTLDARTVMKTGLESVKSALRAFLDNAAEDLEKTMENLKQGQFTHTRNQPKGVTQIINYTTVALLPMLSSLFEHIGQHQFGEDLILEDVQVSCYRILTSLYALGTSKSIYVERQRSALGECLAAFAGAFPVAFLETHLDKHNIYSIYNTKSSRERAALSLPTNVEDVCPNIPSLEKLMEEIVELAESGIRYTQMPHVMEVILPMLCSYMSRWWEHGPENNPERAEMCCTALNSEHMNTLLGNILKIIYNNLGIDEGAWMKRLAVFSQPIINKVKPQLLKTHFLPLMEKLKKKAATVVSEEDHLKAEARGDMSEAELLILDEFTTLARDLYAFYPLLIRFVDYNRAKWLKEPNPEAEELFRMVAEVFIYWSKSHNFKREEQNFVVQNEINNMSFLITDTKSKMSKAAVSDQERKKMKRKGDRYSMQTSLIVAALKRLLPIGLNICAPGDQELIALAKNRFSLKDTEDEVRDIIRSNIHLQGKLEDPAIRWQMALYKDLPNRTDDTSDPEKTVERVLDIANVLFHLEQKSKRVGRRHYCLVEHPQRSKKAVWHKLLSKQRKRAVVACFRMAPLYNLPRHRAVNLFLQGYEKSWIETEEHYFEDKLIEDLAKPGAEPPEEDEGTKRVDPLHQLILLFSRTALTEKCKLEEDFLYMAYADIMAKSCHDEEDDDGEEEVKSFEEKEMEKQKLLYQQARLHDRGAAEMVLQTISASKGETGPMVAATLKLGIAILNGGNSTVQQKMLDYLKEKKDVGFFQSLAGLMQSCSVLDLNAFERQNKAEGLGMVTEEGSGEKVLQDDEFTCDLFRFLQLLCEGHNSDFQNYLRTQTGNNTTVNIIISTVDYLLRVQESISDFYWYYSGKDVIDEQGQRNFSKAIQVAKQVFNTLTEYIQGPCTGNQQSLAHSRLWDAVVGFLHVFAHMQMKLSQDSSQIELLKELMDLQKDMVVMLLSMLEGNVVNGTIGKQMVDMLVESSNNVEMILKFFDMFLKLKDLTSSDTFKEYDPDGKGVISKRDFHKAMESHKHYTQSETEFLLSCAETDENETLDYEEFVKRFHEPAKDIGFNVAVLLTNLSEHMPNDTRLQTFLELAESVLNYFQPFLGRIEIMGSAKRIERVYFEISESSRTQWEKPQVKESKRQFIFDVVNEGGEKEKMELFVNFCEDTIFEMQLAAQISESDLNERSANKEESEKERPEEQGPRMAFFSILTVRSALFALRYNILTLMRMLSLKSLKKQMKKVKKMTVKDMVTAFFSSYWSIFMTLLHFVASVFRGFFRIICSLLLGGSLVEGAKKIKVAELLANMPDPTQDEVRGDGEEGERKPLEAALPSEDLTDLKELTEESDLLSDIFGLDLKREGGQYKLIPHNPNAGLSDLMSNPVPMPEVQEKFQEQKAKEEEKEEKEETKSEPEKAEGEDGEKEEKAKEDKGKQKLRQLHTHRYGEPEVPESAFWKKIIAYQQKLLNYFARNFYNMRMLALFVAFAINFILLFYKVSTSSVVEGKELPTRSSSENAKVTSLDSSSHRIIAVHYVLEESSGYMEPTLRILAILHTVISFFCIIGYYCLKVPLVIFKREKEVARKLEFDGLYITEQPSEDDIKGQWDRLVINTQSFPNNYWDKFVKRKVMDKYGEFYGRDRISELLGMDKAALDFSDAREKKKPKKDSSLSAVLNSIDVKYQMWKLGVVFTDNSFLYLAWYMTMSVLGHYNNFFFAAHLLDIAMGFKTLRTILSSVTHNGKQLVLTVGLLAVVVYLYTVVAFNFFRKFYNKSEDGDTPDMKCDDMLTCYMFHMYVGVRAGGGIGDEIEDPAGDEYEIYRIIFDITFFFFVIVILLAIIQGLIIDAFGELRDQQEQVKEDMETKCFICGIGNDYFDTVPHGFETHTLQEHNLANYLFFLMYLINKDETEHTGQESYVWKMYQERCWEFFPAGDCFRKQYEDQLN
T1 sequence (P68106 whole entry partner): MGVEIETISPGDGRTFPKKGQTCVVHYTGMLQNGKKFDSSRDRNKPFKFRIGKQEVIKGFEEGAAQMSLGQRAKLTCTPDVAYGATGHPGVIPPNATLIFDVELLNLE

Binding | Compound
100 nM | COc1ccc2c(c1)CN(C(=O)CCN1CCC(Cc3ccccc3)CC1)C[C@@H](C)S2
100 nM | COc1ccc2c(c1)CN(C(=O)CCN1CCC(Cc3ccccc3)CC1)C(C)CS2 (stereo not drawn)
100 nM | COc1ccc2c(c1)CN(C(=O)CCN1CCC(Cc3ccccc3)CC1)[C@@H](C)[C@@H](C)S2
100 nM | COc1ccc2c(c1)CN(C(=O)CCN1CCC(Cc3ccccc3)CC1)C[C@@H](C)O2
100 nM | COc1ccc2c(c1)CN(C(=O)CCN1CCC(Cc3ccccc3)CC1)C[C@H](C)O2
1000 nM | COc1cccc(OC)c1CN(C)C(=O)CCN1CCC(Cc2ccccc2)CC1
1000 nM | COc1ccc2c(c1)CN(C(=O)CCN1CCC(Cc3ccccc3)CC1)[C@H](C)[C@H](C)S2
1000 nM | COc1ccc2c(c1)C/C(=C\CCN1CCC(Cc3ccccc3)CC1)CCS2
100 nM | COc1ccc2c(c1)C/C(=C/CCN1CCC(Cc3ccccc3)CC1)CCS2
